“Also recorded” adds a separate entry of the source.
Tests used:
HIF-1 = HIF-1 / HRE luciferase reporter assay (and HIF-1α immunoblot) in AML12 hepatocytes; type: cell-based, mouse
Protocol: (§1) The differentiated non-transformed mouse hepatocyte cell line AML12 (ATCC Inc.) was cultured in Dulbecco's […] (DMEM)/F-12 media (1:1) supplemented with 10% fetal bovine serum (FBS), 1% penicillin-streptomycin antibiotics and 5 μg/ml insulin, 5 μg/ml transferrin, 5 ng/ml selenium as previously described (62). The human hepatocellular carcinoma cell lines Huh7 and HepG2 were grown in DMEM media containing 10% FBS and 1% penicillin-streptomycin antibiotics. Media was purchased from Hyclone (Logan, Utah). All other medium components were purchased from Invitrogen (Carlsbad, Calif.). Cultures were maintained at 37° C. in a hunified 5% CO2 atmosphere. For hypoxic conditions, cells were grown at 1% O2 in a custom-designed incubator (XVivo Hypoxia Chamber; BioSpherix) for 24 hrs.
Western Blot Analysis and Immunoprecipitation. […]
For the reporter assay, cells were seeded in a 24-well plate under triplicate conditions at 80% confluency. […] After 2 days, luciferase and galactosidase expression were measured using the Dual-Light Reporter Gene Assay (Applied Biosystems, Foster City, Calif.) according to the manufacturer's instructions. […]

β-catenin/TCF signaling = assay: β-catenin/TCF luciferase reporter assay in AML12 hepatocytes; type: cell-based
Protocol: as §1
Western Blot Analysis and Immunoprecipitation. Cells were treated with actinomycin D and TNFα, hydrogen peroxide (H2O2), hypoxia 1% for 24 hours or pre-treated with N-acetylcysteine (NAC), cobalt chloride (CoCl2), YC-1 (Alexis Biochemicals, San Diego, Calif.), Resveratrol or nicotinamide (NAM) as described in the figure legends. All other chemicals were purchased from Sigma Aldrich (Sigma Aldrich, St. Louis, Mo.). Total proteins (30 μg) were lysed with RIPA lysis buffer and separated by sodium dodecylsulfate-polyacrylamide gel electrophoresis. After transfer, the polyvinylidene diflouride membrane was blocked with 5% non-fat milk in Tris-buffered saline with 0.1% Tween-20 (TBST) and then incubated with primary antibodies at 4° C. overnight. After washing, the horseradish peroxidase-conjugated secondary antibodies were added for 30 minutes at room temperature. Antibody binding was visualized by enhanced chemiluminescence reagent (GE Healthcare BioSciences, Buckinghamshire, United Kingdom).
For the reporter assay, cells were seeded in a 24-well plate under triplicate conditions at 80% confluency. Cells were transfected the next day with plasmid pMegaTOPFLASH and pMegaFOPFLASH (β-catenin reporter construct containing LEF1/TCF binding sites) or 5×-HRE (hypoxia response element) and 1 μg of pEF1/Myc-His/LacZ plasmid using Lipofectamine 2000 (Invitrogen, Carlsbad, Calif.). Six hours after transfection, the media was replaced with DMEM/F12 media. 24 hours after transfection, cells were either pre-treated with drugs for one hour or incubated in hypoxia 1% for 24 hours as mentioned in the figure legends. After 2 days, luciferase and galactosidase expression were measured using the Dual-Light Reporter Gene Assay (Applied Biosystems, Foster City, Calif.) according to the manufacturer's instructions. Luciferase activity was normalized to β-galactosidase activity as an internal transfection control.

AML12 hepatocytes [1] = assay: Intracellular ROS levels by DCF-DA flow cytometry; type: cell-based, mouse; settings: one hour pre-treatment with NAC (2 mmol/L)
Protocol: as §1, with “hrs. The fluorescent probe, dichlorofluorescein diacetate (DCF-DA) (Invitrogen, Carlsbad, Calif.), was used to monitor the intracellular generation of ROS induced by hypoxia. After cells were incubated with 10 μmol/l DCF-DA for 30 min as previously described (67), cells were trypsinized, pelleted by centrifugation and resuspended in phosphate-buffered saline for FACS analysis by using a FACS LSRII flow cytometer (Becton Dickinson, San Diego, Calif.). The oxidized form of DCF-DA was excited at 488 nm and detected at 530 nm. Data were analyzed using CellQuest software.” for “hrs.”

AML12 hepatocytes [2] = assay: Apoptosis under hypoxia by MTT assay and immunoblot for caspase-cleaved K18Asp237; type: cell-based, mouse; settings: YC-1 pre-treatment (100 μmol/L) for 1 hour
Protocol: Western Blot Analysis and Immunoprecipitation. Cells were treated with actinomycin D and TNFα, hydrogen peroxide (H2O2), hypoxia 1% for 24 hours or pre-treated with N-acetylcysteine (NAC), cobalt chloride (CoCl2), YC-1 (Alexis Biochemicals, San Diego, Calif.), Resveratrol or nicotinamide (NAM) as described in the figure legends. All other chemicals were purchased from Sigma Aldrich (Sigma Aldrich, St. Louis, Mo.). Total proteins (30 μg) were lysed with RIPA lysis buffer and separated by sodium dodecylsulfate-polyacrylamide gel electrophoresis. […]
For the assessment of cell proliferation and survival, a commercially available MTT (3-(4,5-dimethylthiazol-2-yl)-2,5-diphenyltetrazolium bromide) cell proliferation assay (Roche Applied Science, Indianapolis, Ind.) was used according to the manufacturer instructions. Absorbance was measured at 570 nm using a spectrophotometer.
Apoptosis was measured by western blot using Asp237 antibody that recognizes caspase-cleaved keratin18 or by using Caspase-Glo 3/7 Assay following the manusfacturer's instructions (Promega Corporation, Madison, Wis.). […] Caspase-Glo 3/7 reagent was added to each well in a 1:1 ratio and incubated for one hour before measuring luminescence using a LB96B dual injector luminometer (Berthold Technologies, Oak Ridge, Tenn.).

With `[Cl][Co][Cl]` [CoCl2, cobalt chloride] the “HIF-1α induction (HRE reporter assay and immunoblot)” value (HIF-1; CoCl2 (150 μmol/L)) was “HIF-1α induction was verified” and the “β-catenin/TCF reporter activity after HIF-1α stabilization” value (β-catenin/TCF signaling; AML12 hepatocytes, CoCl2 (150 μmol/L) under normoxia or hypoxia) was “significant reduction in TCF signal transduction; also recorded: reduced”.
`CC(=O)N[C@@H](CS)C(=O)O` [NAC, N-acetylcysteine] was tested, and the “Intracellular ROS levels under hypoxia” value (AML12 hepatocytes [1]) was “decrease intracellular ROS; also recorded: significantly prevents ROS production under hypoxia” and the “β-catenin/TCF signaling (reporter activity) under hypoxia” value (β-catenin/TCF signaling; AML12 hepatocytes, hypoxia, one hour pre-treatment with NAC (2 mmol/L)) was “diminish the suppressive effect of hypoxia derived ROS on β-catenin/TCF signal transduction; also recorded: prevents hypoxia-induced inhibition of β-catenin/TCF signaling”.
In the case of `NC(=O)c1cccnc1` [NAM, nicotinamide], the “Hypoxia-induced suppression of TCF signaling (Sirt1 inhibition)” value (β-catenin/TCF signaling; hepatocytes under hypoxia, addition of Sirt1 inhibitor) is reported as “abolished this effect”.
In the case of `OCc1ccc(-c2nn(Cc3ccccc3)c3ccccc23)o1` [YC-1, 3-(5′-hydroxymethyl-2′-furyl)-1-benzylindazole], the “HIF-1 signal activity (HRE reporter) under hypoxia” value (HIF-1; hypoxia, pre-treatment with YC-1 (100 μmol/L) for 1 hour) is reported as “significantly reduced HRE activity; also recorded: inhibits the hypoxia-induced increase in HIF-1 signal activity” and the “Apoptosis under hypoxia (MTT assay, caspase-cleaved K18Asp237)” value (AML12 hepatocytes [2]) is reported as “induced significant apoptosis; also recorded: more apoptosis”.
`Oc1ccc(C=Cc2cc(O)cc(O)c2)cc1` [resveratrol] was tested, and the “β-catenin/TCF signal transduction (Sirt1 agonist)” value (β-catenin/TCF signaling; hepatocytes, Sirt1 agonist) was “significantly inhibited β-catenin/TCF signal transduction”.
